Source: patent US5405857A, “3-substituted 1,2,3,4,-oxatriazole-5-imine compounds, a process for the preparation thereof and a pharmaceutical preparation containing said compounds” (A/S GEA Farmaceutisk Fabrik, priority 1991, dated 1995)
Counter-ions that a name gives are not always drawn. Like-named read-outs stand apart in the source and are kept apart here. One block for each compound: values may come before it.

How the values were obtained:
blood platelets = test: Inhibition of blood platelet aggregation (aggregometer, ADP); assay type: cell-based, human (healthy testees); conditions: Platelet, 0.05 h; human PRP, ADP 2 to 4 μM, 3 min incubation, 37° C.; read-out: IC50 (Inhibition of blood platelet aggregation)
Protocol: Compounds according to the invention were tested for their inhibition of clumping together (aggregation) of blood platelets (thrombocytes), which is the first phase of the formation of blood clots (thrombi). Such an inhibition may prevent the formation of blood clots and inhibit the development of new thrombi after a diagnosed thrombus.
Citrate stabilized ( 0.38% of sodium citrate, final concentration) venous blood from healthy testees is used, who have not used medicine for at least 8 days. Slight centrifugation (160×g for 10 minutes) results in PRP (blood plasma rich in platelets) which is pipetted. PPP (blood plasma poor in platelets) is obtained by an intense centrifugation (3000×g for 10 minutes) of the remaining blood. The light transmission is measured by the aggregometer (CHRONOLOG). PRP allows nearly no light transmitaaion, while PPP allows complete transmission of light. The PRP is placed in the aggregometer at 37° C. while being stirred by a magnet. Addition of a pro-aggregating substance causes the PRP to aggregate gradually and an increasing light transmission takes place at the same time. At complete aggregation a light transmission corresponding to PPP is obtained. Adnosine diphosphate (ADP) is used as pro-aggregating substance, said substance representing a basic biochemical mechanism for aggregation of blood platelets. The test substances are incubated for 3 minutes in PRP placed in the aggregometer at 37° C. during magnetic stirring. A predetermined positively aggregating dosage of adenosine diphosphate (ADP) (2 to 4 μM) is then added. […] A so-called IC50 -value (that is the concentration inhibiting the aggregation by 50% relative to the control aggregation) is calculated for each test substance by linear regression analysis (log concentration μM as constant ad abscissa and % inhibition as variable ad ordinate). The following known reference substances have been used: nitroglycerine (GTN), sodium nitroprusside (NNP) and SIN-1 (the active metabolite of molsidomine).

[1] = target: T1, soluble guanylate cyclase (Homo sapiens, UniProt Q02153); test: Stimulation of guanylate cyclase from blood platelets (RIA); assay type: biochemical; conditions: 37° C.
T1 construct: The guanylate cyclase activity in the supernatant after incubation with and without the test substance; endogenous in cells; host or cells: human blood platelets, supernatant of homogenate
T1 sequence (Q02153 1-619): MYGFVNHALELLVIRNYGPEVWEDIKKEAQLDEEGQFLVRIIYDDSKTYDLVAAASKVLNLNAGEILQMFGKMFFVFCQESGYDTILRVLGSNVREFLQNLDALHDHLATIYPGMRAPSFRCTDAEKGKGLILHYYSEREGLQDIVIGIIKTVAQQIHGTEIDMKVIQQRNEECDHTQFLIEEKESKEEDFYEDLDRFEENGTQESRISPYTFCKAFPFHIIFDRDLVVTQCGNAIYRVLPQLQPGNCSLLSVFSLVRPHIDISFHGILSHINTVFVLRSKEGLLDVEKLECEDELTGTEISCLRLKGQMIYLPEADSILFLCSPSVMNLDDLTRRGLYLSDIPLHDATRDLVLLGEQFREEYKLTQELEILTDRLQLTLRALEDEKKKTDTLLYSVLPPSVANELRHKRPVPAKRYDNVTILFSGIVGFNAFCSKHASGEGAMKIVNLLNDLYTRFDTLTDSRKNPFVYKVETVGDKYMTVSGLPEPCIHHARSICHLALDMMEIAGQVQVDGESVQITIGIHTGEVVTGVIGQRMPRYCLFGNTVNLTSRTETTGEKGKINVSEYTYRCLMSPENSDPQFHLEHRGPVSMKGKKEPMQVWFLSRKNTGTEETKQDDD
T1 sequence (Q02108 1-690 partner): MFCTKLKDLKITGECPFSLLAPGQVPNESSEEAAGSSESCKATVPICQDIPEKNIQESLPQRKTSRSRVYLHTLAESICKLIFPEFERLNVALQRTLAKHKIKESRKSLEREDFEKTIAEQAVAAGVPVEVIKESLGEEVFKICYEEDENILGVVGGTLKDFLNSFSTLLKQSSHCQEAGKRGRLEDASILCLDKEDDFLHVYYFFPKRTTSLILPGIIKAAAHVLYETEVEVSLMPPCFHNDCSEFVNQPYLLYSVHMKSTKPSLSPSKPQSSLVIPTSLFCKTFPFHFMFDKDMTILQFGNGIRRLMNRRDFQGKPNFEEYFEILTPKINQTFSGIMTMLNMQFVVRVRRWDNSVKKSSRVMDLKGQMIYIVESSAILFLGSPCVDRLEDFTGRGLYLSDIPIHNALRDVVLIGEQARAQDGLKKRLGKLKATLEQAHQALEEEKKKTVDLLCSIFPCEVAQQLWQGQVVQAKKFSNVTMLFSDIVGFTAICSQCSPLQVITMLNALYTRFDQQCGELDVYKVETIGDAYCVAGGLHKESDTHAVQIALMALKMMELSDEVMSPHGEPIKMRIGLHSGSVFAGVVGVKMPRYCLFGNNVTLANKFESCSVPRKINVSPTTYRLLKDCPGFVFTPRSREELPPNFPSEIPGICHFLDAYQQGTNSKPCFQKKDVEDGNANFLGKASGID

pre-contracted trachea = test: Relaxation of pre-contracted isolated trachea; parameters: species or system guinea pig; conditions: Cavia porcellus; carbamylcholine 0.3 μM, Krebs buffer, 37° C.
Protocol: Compounds according to the invention were tested for their ability to relax a pre-contracted trachea. A contraction of the respiratory passages in combination with a swelling of the mucuos membrane therein presents a vital factor at asthmatic conditions. Relaxation or dilation of the contracted respiratory passages will improve the asthmatic condition.
An isolated trachea from a guinea pig is used. After preparation of a strip which has maintained the circular musculature, the organ is divided into two parts of equal size. The two tracheal strips are suspended in their respective organ bath and connected to a transducer recording the contraction and relaxation of the organ by means of a recorder. The two tracheal strips are continuously bathed in a Krebs buffer at 37° C., constantly bubbled with carbogen (95% O2 and 5% CO2). After an equilibration time of about 3 hours the organs are tested for their sensitivity (contractility) to carbamylcholin a bolus being added directly to the bath (0.3 μM). If the contraction is satisfactory, the organs are transferred to the Krebs buffer containing the same concentration of carbamylcholine. The organs are now constantly exposed to the carbamylcholine and slowly develop a permanent contraction ("asthma"). The test substances are in bolus form added directly to the organ bath. After maximum effect (relaxation) the substances are removed by washing out and the tracheal strip reverts to its permanent contraction state. […] An EC50 -value (that is the concentration relaxing the organ by 50% relative to the maximum relaxation) is calculated for each test substance by means of a linear regression analysis (log concentration (μM) as a constant ad abscissa and % relaxation as variable ad ordinate). Sodium nitroprusside (NNP) and SIN-1 are used as reference substances.

male rats = conditions: rat, in vivo, po, 20 mg/kg
Protocol: (§1) Two tests were carried out on male rats, namely a determination of the "maximum tolerable dose" (MTD) and a test using multiple peroral doses. In addition, a LD50 test was carried out intravenously on mice.
At this test the substances were administered perorally in a dose of 20 mg per kg. as solutions or suspensions once a day for 5 days to groups of 5 animals. Clinical observations were made every day and the above hematological parameters were measured on the third day of the test.

LD50 test, intravenous = test: LD50 test, intravenous; parameters: species or system mice; conditions: mouse, in vivo, single injection, read-out: LD50 with 95% confidence limits
Protocol: as §1
(According to Litchfield and Wileoxon, J. Pharmacol. Exp. Therap. 96, 99-113, 1949).
The intravenous LD50 -value was determined after one single injection of different doses of the compound prepared in Example 4.

PAI-1 = test: Inhibition of plasminogen activator inhibitor (PAI-1) from blood platelets (fibrinolytic activity); assay type: cell-based, human; conditions: 50 μM, 60 minutes; for % Inhibition of PAI-1 activity: compared to control; for PAI-1 activity: human PRP, control 3.24
Protocol: Compounds according to the invention were tested for their inhibition of plasminogen activator inhibitor (PAI). An established thrombus comprises aggregated platelets cohered by fibrin. The organism has a fibrinolyric system for maintaining normal physiological conditions. Endogenous plasminogen is activated to plasmin (fibrinolysin, that is a proteolytic enzyme decomposing fibrin) by means of a tissue plasminogen activator (t-PA). The platelets include the enzyme PAI-1 inhibiting the activation of plasminogen to plasmin, and thus also the decomposition of fibrin.
A general stimulation of the fibrinolytic system can cause serious hemostatic side effects (haemorrhages). A specific inhibition of PAI-1 induces an increased fibrinolysis in areas with many platelets, which is exactly the case in thrombi. As a result a thrombolytic effect is obtained.
Human PRP prepared by slight centrifugation as previously mentioned is used, but at a low temperature (4° C.). By incubation of PRP (1 ml in a plastic tube) during a slight shaking at 37° C. the PAI-1 activity is liberated, said PAI-1 activity being measured spectrophotometrically by means of a two-step procedure using commercial kits (Spectrolyse™/fibrin kit from BIOPOOL, Sweden).
The PAI-1 activity of the control PRP and PRP incubated with each of 6 compounds according to the invention and the reference substance sodium niroprusside (NNP) (50 μM of each for 60 minutes) appear from Table 6.

[2] = system: polymorph nuclear leukocytes (PMNs), c-GMP; test: Stimulation of c-GMP content in PMNs; assay type: cell-based, human; conditions: 37° C., 10 minutes
Protocol: (§2) Compounds according to the invention were tested for their ability to increase the content of cyclic guanosine monophosphate (c-GMP), to inhibit the synthesis of the leukotriene B4 (LTB4), and to inhibit the chemotactical movement of polymorph nuclear leukocytes (PMN). The polymorph nuclear leukocytes play a vital part in the cellular part of the inflammation process. At diseases, such as asthma, the mucuos membrane of the respiratory passages is swollen as a result of an inflammation with a significant infiltration of polymorph nuclear leukocytes (PMN's) in particular. Particularly effective substances for the treatment of asthma are such which in addition to relaxing the musculature in the respiratory passages also have an anti-inflammatory effect on the cellular phase of the inflammatory process, that is inhibiting the leukocyte function.
(§3) Isolated human PMNs are incubated at 37° C. for 10 minutes, whereafter the content of cyclic guanosine monophosphate (c-GMP) is measured. Further, the synthesis of the LTB4 is determined after stimulation with Ca-ionophore (A23187) and the chemotaxis (controlled movement) towards FMLP (a substance attracting the polymorph nuclear leukocytes, PMNs) is determined.
Three compounds according to the invention and the reference substance SIN-1 were tested for their ability to stimulate the content of cyclic guanosine monophosphate (c-GMP).

[3] = system: polymorph nuclear leukocytes (PMNs), LTB4 synthesis; test: Inhibition of leukotriene B4 synthesis in PMNs after Ca-ionophore (A23187); assay type: cell-based, human
Protocol: as §2, §3

[4] = system: polymorph nuclear leukocytes (PMNs); test: Inhibition of PMN chemotaxis towards FMLP; assay type: cell-based, human
Protocol: as §2, §3

Compound: CC(=O)Oc1ccccc1C(=O)[N-]c1n[n+](-c2cccc(Cl)c2C)no1 [Example 38]
IC50 (blood platelets): 0.2 µM
Guanylate cyclase activity ([1]; 0.01 μM): 1024 pmole c-GMP/mg prot. × 15 minutes
Guanylate cyclase activity ([1]; 10 μm (so in the source)): 82100 pmole c-GMP/mg prot. × 15 minutes
EC50 (pre-contracted trachea): 3.2 µM
Clinical observations (male rats): N.R.
Hematological parameters (male rats): N.R.
Side effects (in words) (male rats): no side effects

Compound: [NH-]c1n[n+](-c2ccc(C(F)(F)F)cc2)no1 [Example 4]
LD50 (LD50 test, intravenous; female mice): 81 mg/kg
LD50 (LD50 test, intravenous; male mice): 89 mg/kg

Compound: Cc1c(Cl)cccc1-[n+]1noc([NH-])n1 [Example 29, 3-(3-chloro-2-methylphenyl)-1,2,3,4-oxatriazole-5-imine]
% Inhibition of PAI-1 activity (PAI-1): 39%
PAI-1 activity (PAI-1): 1.97 U/10^8 platelets
Guanylate cyclase activity ([1]; 0.01 μM): 4407 pmole c-GMP/mg prot. × 15 minutes
Guanylate cyclase activity ([1]; 10 μm (so in the source)): 61900 pmole c-GMP/mg prot. × 15 minutes
EC50 (pre-contracted trachea): 0.8 µM
c-GMP in PMNs ([2]; 1 μM): 209 fmole/10^6 cells
c-GMP in PMNs ([2]; 10 μM): 859 fmole/10^6 cells
c-GMP in PMNs ([2]; 100 μM): 1044 fmole/10^6 cells

Compound: Cc1cc(Cl)ccc1-[n+]1noc([NH-])n1 [Example 13, 3-(4-chloro-2-methylphenyl)-1,2,3,4-oxatriazole-5-imine hydrochloride]
IC50 (blood platelets): 0.2 µM
Guanylate cyclase activity ([1]; 0.01 μM): 7642 pmole c-GMP/mg prot. × 15 minutes
Guanylate cyclase activity ([1]; 10 μm (so in the source)): 48126 pmole c-GMP/mg prot. × 15 minutes
EC50 (pre-contracted trachea): 1.1 µM

Compound: Cc1c(Cl)cccc1-[n+]1noc([N-]C(=O)c2cccnc2)n1 [Example 54]
Guanylate cyclase activity ([1]; 0.01 μM): 8139 pmole c-GMP/mg prot. × 15 minutes
Guanylate cyclase activity ([1]; 10 μm (so in the source)): 18693 pmole c-GMP/mg prot. × 15 minutes
EC50 (pre-contracted trachea): 0.6 µM

Compound: Cc1cccc(C)c1-[n+]1noc([NH-])n1 [Example 12]
% Inhibition of PAI-1 activity (PAI-1): 37%
PAI-1 activity (PAI-1): 2.04 U/10^8 platelets
EC50 (pre-contracted trachea): 4.9 µM

Second part, led by results:

EC50 (pre-contracted trachea): 5.2 µM
Compound: COc1ccc(CCNC(=O)[N-]c2n[n+](-c3cccc(Cl)c3C)no2)cc1OC [Example 47a, 3-(3-chloro-2-methylphenyl)-1,2,3,4-oxatriazole-5-(N-3,4-dimethoxyphenylethylcarbamoyl)imine]

IC50 (blood platelets): 3.9 µM
Guanylate cyclase activity ([1]; 0.01 μM): 0 pmole c-GMP/mg prot. × 15 minutes
Guanylate cyclase activity ([1]; 10 μm (so in the source)): 59733 pmole c-GMP/mg prot. × 15 minutes
EC50 (pre-contracted trachea): 18.3 µM
Compound: [NH-]c1c[n+](N2CCOCC2)no1 [SIN-1, reference compound]
c-GMP in PMNs ([2]; 1 μM): 32 fmole/10^6 cells
c-GMP in PMNs ([2]; 10 μM): 220 fmole/10^6 cells
c-GMP in PMNs ([2]; 100 μM): 473 fmole/10^6 cells
Inhibition of leukotriene B4 synthesis (in words) [3]: also able to inhibit these leukocyte functions, but only when used in higher concentrations
Inhibition of PMN chemotaxis (in words) [4]: also able to inhibit these leukocyte functions, but only when used in higher concentrations
